System: F. graminearum 3ADON (high toxin producing strain)
Format: cell-based, Fusarium graminearum

SMILES: CC(/C=C/[C@@]1(C)[C@H](C)CCC(=O)[C@@H]1C)=C\Cc1c(O)cc(C)c(C=O)c1O [cylindrol B, 4-dihydroxy-6-methyl-3-[(2E,4E)-3-methyl-5-[(1R,2R,6R)-1,2,6-trimethyl-3-oxocyclohexyl]penta-2,4-dienyl]benzaldehyde]
- clearing of fungus around the well: showed a clearing of fungus around the well

Source: patent US11470793B2, “Bacterial strain having anti-fungal properties and uses thereof” (Kontzamanis Graumann Smith MacMillan Inc., priority 2019, dated 2022)
